According to PubChem BioAssay (NCI):
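Assay format: 96-well plates, 48-hour exposure. GI50 is the concentration that inhibits growth by half. TGI marks complete inhibition of growth.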

Columns and labels:
Assay in all cases: NCI anticancer screen, dose series, 48 h
COLO 205 colon = tested on: COLO 205 colon
NCI/ADR-RES ovarian = tested on: NCI/ADR-RES ovarian
NCI-H460 lung = tested on: NCI-H460 lung
MDA-MB-435 = tested on: MDA-MB-435
MALME-3M melanoma = tested on: MALME-3M melanoma
M14 melanoma = tested on: M14 melanoma
KM12 colon = tested on: KM12 colon
MOLT-4 leukemia = tested on: MOLT-4 leukemia
TK-10 renal = tested on: TK-10 renal
K-562 leukemia = tested on: K-562 leukemia
786-0 renal = tested on: 786-0 renal
NCI-H226 lung = tested on: NCI-H226 lung
UO-31 renal = tested on: UO-31 renal
OVCAR-4 ovarian = tested on: OVCAR-4 ovarian
RPMI-8226 leukemia = tested on: RPMI-8226 leukemia
MCF7 breast = tested on: MCF7 breast
SNB-19 CNS = tested on: SNB-19 CNS
SW-620 colon = tested on: SW-620 colon
HCT-15 colon = tested on: HCT-15 colon
CAKI-1 renal = tested on: CAKI-1 renal
SK-MEL-5 melanoma = tested on: SK-MEL-5 melanoma
A549 NSCLC = tested on: A549 NSCLC
SK-MEL-28 melanoma = tested on: SK-MEL-28 melanoma
SF-539 CNS = tested on: SF-539 CNS
RXF 393 renal = tested on: RXF 393 renal
SK-OV-3 ovarian = tested on: SK-OV-3 ovarian
OVCAR-8 ovarian = tested on: OVCAR-8 ovarian
HT29 colon = tested on: HT29 colon
NCI-H23 lung = tested on: NCI-H23 lung
EKVX NSCLC = tested on: EKVX NSCLC
CCRF-CEM leukemia = tested on: CCRF-CEM leukemia
UACC-257 melanoma = tested on: UACC-257 melanoma
MDA-MB-468 breast = tested on: MDA-MB-468 breast
U251 CNS = tested on: U251 CNS
SF-268 CNS = tested on: SF-268 CNS
HOP-62 NSCLC = tested on: HOP-62 NSCLC
A498 renal = tested on: A498 renal
SR leukemia = tested on: SR leukemia
HCC-2998 colon = tested on: HCC-2998 colon
OVCAR-3 ovarian = tested on: OVCAR-3 ovarian
T-47D breast = tested on: T-47D breast
BT-549 breast = tested on: BT-549 breast
SK-MEL-2 melanoma = tested on: SK-MEL-2 melanoma
IGROV1 ovarian = tested on: IGROV1 ovarian
PC-3 prostate = tested on: PC-3 prostate
HS 578T breast = tested on: HS 578T breast
HOP-92 NSCLC = tested on: HOP-92 NSCLC
NCI-H522 lung = tested on: NCI-H522 lung
LOX IMVI melanoma = tested on: LOX IMVI melanoma
SNB-75 CNS = tested on: SNB-75 CNS
HCT-116 colon = tested on: HCT-116 colon
MDA-MB-231 breast = tested on: MDA-MB-231 breast
UACC-62 melanoma = tested on: UACC-62 melanoma
SN12C renal = tested on: SN12C renal
DU-145 prostate = tested on: DU-145 prostate
OVCAR-5 ovarian = tested on: OVCAR-5 ovarian
HL-60(TB) leukemia = tested on: HL-60(TB) leukemia
SF-295 CNS = tested on: SF-295 CNS
ACHN renal = tested on: ACHN renal

Question: `Fc1ccccc1CNc1nc(SCCN2CCOCC2)nc2c1cnn2CC(Cl)c1ccc(Br)cc1` (stereo not drawn) was tested. Which GI50 (COLO 205 colon) did it give?
Answer: 2.8 µM

Question: And the TGI (COLO 205 colon)?
Answer: 8.12 µM

Question: And the GI50 (NCI/ADR-RES ovarian)?
Answer: 4.24 µM

Question: What about the TGI (NCI/ADR-RES ovarian) of the same compound?
Answer: > 100 µM

Question: What about the GI50 (NCI-H460 lung) of the same compound?
Answer: 3.99 µM

Question: And the TGI (NCI-H460 lung)?
Answer: > 100 µM

Question: What about the GI50 (MDA-MB-435) of the same compound?
Answer: 4.98 µM

Question: And the TGI (MDA-MB-435)?
Answer: > 100 µM

Question: What about the GI50 (MALME-3M melanoma) of the same compound?
Answer: 2.54 µM

Question: What about the TGI (MALME-3M melanoma) of the same compound?
Answer: 6.89 µM

Question: What about the GI50 (M14 melanoma) of the same compound?
Answer: 4.19 µM

Question: What about the TGI (M14 melanoma) of the same compound?
Answer: > 100 µM

Question: And the GI50 (KM12 colon)?
Answer: 3.74 µM

Question: And the TGI (KM12 colon)?
Answer: > 100 µM

Question: What about the GI50 (MOLT-4 leukemia) of the same compound?
Answer: 3.46 µM

Question: And the TGI (MOLT-4 leukemia)?
Answer: > 100 µM

Question: And the GI50 (TK-10 renal)?
Answer: > 100 µM

Question: And the TGI (TK-10 renal)?
Answer: > 100 µM

Question: And the GI50 (K-562 leukemia)?
Answer: 2.55 µM

Question: What about the TGI (K-562 leukemia) of the same compound?
Answer: > 100 µM

Question: And the GI50 (786-0 renal)?
Answer: 3.31 µM

Question: What about the TGI (786-0 renal) of the same compound?
Answer: 30.6 µM

Question: And the GI50 (NCI-H226 lung)?
Answer: 3.52 µM

Question: What about the TGI (NCI-H226 lung) of the same compound?
Answer: > 100 µM

Question: What about the GI50 (UO-31 renal) of the same compound?
Answer: 3.13 µM

Question: And the TGI (UO-31 renal)?
Answer: > 100 µM

Question: What about the GI50 (OVCAR-4 ovarian) of the same compound?
Answer: 3.49 µM

Question: And the TGI (OVCAR-4 ovarian)?
Answer: > 100 µM

Question: And the GI50 (RPMI-8226 leukemia)?
Answer: 2.67 µM

Question: And the TGI (RPMI-8226 leukemia)?
Answer: 8.25 µM

Question: What about the GI50 (MCF7 breast) of the same compound?
Answer: 3.58 µM

Question: And the TGI (MCF7 breast)?
Answer: > 100 µM

Question: What about the GI50 (SNB-19 CNS) of the same compound?
Answer: 7.08 µM

Question: What about the TGI (SNB-19 CNS) of the same compound?
Answer: > 100 µM

Question: What about the GI50 (SW-620 colon) of the same compound?
Answer: 2.05 µM

Question: And the TGI (SW-620 colon)?
Answer: 5.39 µM

Question: And the GI50 (HCT-15 colon)?
Answer: 1.69 µM

Question: What about the TGI (HCT-15 colon) of the same compound?
Answer: 3.95 µM

Question: And the GI50 (CAKI-1 renal)?
Answer: 3.83 µM

Question: What about the TGI (CAKI-1 renal) of the same compound?
Answer: > 100 µM

Question: And the GI50 (SK-MEL-5 melanoma)?
Answer: 2.87 µM

Question: What about the TGI (SK-MEL-5 melanoma) of the same compound?
Answer: 10.7 µM

Question: And the GI50 (A549 NSCLC)?
Answer: 4.06 µM

Question: And the TGI (A549 NSCLC)?
Answer: > 100 µM

Question: And the GI50 (SK-MEL-28 melanoma)?
Answer: 4.99 µM

Question: And the TGI (SK-MEL-28 melanoma)?
Answer: > 100 µM

Question: What about the GI50 (SF-539 CNS) of the same compound?
Answer: 2.29 µM

Question: And the TGI (SF-539 CNS)?
Answer: 6.94 µM

Question: What about the GI50 (RXF 393 renal) of the same compound?
Answer: 1.43 µM

Question: What about the TGI (RXF 393 renal) of the same compound?
Answer: 5.27 µM

Question: And the GI50 (SK-OV-3 ovarian)?
Answer: > 100 µM

Question: What about the TGI (SK-OV-3 ovarian) of the same compound?
Answer: > 100 µM

Question: And the GI50 (OVCAR-8 ovarian)?
Answer: 6.36 µM

Question: And the TGI (OVCAR-8 ovarian)?
Answer: > 100 µM

Question: What about the GI50 (HT29 colon) of the same compound?
Answer: 1.47 µM

Question: And the TGI (HT29 colon)?
Answer: 3.39 µM

Question: And the GI50 (NCI-H23 lung)?
Answer: 7.76 µM

Question: And the TGI (NCI-H23 lung)?
Answer: > 100 µM

Question: What about the GI50 (EKVX NSCLC) of the same compound?
Answer: 5.28 µM

Question: And the TGI (EKVX NSCLC)?
Answer: > 100 µM

Question: And the GI50 (CCRF-CEM leukemia)?
Answer: 3.34 µM

Question: What about the TGI (CCRF-CEM leukemia) of the same compound?
Answer: > 100 µM

Question: What about the GI50 (UACC-257 melanoma) of the same compound?
Answer: 3.38 µM

Question: And the TGI (UACC-257 melanoma)?
Answer: 79.1 µM

Question: What about the GI50 (MDA-MB-468 breast) of the same compound?
Answer: 2.26 µM

Question: What about the TGI (MDA-MB-468 breast) of the same compound?
Answer: 7 µM

Question: What about the GI50 (U251 CNS) of the same compound?
Answer: 5.93 µM

Question: And the TGI (U251 CNS)?
Answer: > 100 µM

Question: And the GI50 (SF-268 CNS)?
Answer: 6.08 µM

Question: What about the TGI (SF-268 CNS) of the same compound?
Answer: > 100 µM

Question: What about the GI50 (HOP-62 NSCLC) of the same compound?
Answer: 7.35 µM

Question: And the TGI (HOP-62 NSCLC)?
Answer: > 100 µM

Question: What about the GI50 (A498 renal) of the same compound?
Answer: 8.94 µM

Question: And the TGI (A498 renal)?
Answer: > 100 µM

Question: And the GI50 (SR leukemia)?
Answer: 4.8 µM

Question: What about the TGI (SR leukemia) of the same compound?
Answer: > 100 µM

Question: And the GI50 (HCC-2998 colon)?
Answer: 3.94 µM

Question: What about the TGI (HCC-2998 colon) of the same compound?
Answer: > 100 µM

Question: And the GI50 (OVCAR-3 ovarian)?
Answer: 37.4 µM

Question: And the TGI (OVCAR-3 ovarian)?
Answer: > 100 µM

Question: What about the GI50 (T-47D breast) of the same compound?
Answer: 2.87 µM

Question: And the TGI (T-47D breast)?
Answer: > 100 µM

Question: What about the GI50 (BT-549 breast) of the same compound?
Answer: 20.9 µM

Question: And the TGI (BT-549 breast)?
Answer: > 100 µM

Question: And the GI50 (SK-MEL-2 melanoma)?
Answer: 2.9 µM

Question: What about the TGI (SK-MEL-2 melanoma) of the same compound?
Answer: 11.7 µM

Question: And the GI50 (IGROV1 ovarian)?
Answer: > 100 µM

Question: What about the TGI (IGROV1 ovarian) of the same compound?
Answer: > 100 µM

Question: What about the GI50 (PC-3 prostate) of the same compound?
Answer: 3.73 µM

Question: And the TGI (PC-3 prostate)?
Answer: > 100 µM

Question: What about the GI50 (HS 578T breast) of the same compound?
Answer: 3.6 µM

Question: What about the TGI (HS 578T breast) of the same compound?
Answer: > 100 µM

Question: What about the GI50 (HOP-92 NSCLC) of the same compound?
Answer: 3.96 µM

Question: What about the TGI (HOP-92 NSCLC) of the same compound?
Answer: > 100 µM

Question: What about the GI50 (NCI-H522 lung) of the same compound?
Answer: 5.16 µM

Question: What about the TGI (NCI-H522 lung) of the same compound?
Answer: > 100 µM

Question: And the GI50 (LOX IMVI melanoma)?
Answer: 2.6 µM

Question: What about the TGI (LOX IMVI melanoma) of the same compound?
Answer: 7.91 µM

Question: And the GI50 (SNB-75 CNS)?
Answer: 2.71 µM

Question: And the TGI (SNB-75 CNS)?
Answer: > 100 µM

Question: What about the GI50 (HCT-116 colon) of the same compound?
Answer: 3.67 µM

Question: What about the TGI (HCT-116 colon) of the same compound?
Answer: > 100 µM

Question: What about the GI50 (MDA-MB-231 breast) of the same compound?
Answer: 3.6 µM

Question: What about the TGI (MDA-MB-231 breast) of the same compound?
Answer: > 100 µM

Question: And the GI50 (UACC-62 melanoma)?
Answer: 2.09 µM

Question: What about the TGI (UACC-62 melanoma) of the same compound?
Answer: 5.23 µM

Question: And the GI50 (SN12C renal)?
Answer: 5.93 µM

Question: And the TGI (SN12C renal)?
Answer: > 100 µM

Question: And the GI50 (DU-145 prostate)?
Answer: 49.6 µM

Question: What about the TGI (DU-145 prostate) of the same compound?
Answer: > 100 µM

Question: What about the GI50 (OVCAR-5 ovarian) of the same compound?
Answer: > 100 µM

Question: And the TGI (OVCAR-5 ovarian)?
Answer: > 100 µM

Question: And the GI50 (HL-60(TB) leukemia)?
Answer: 4.1 µM

Question: What about the TGI (HL-60(TB) leukemia) of the same compound?
Answer: > 100 µM

Question: And the GI50 (SF-295 CNS)?
Answer: 3.04 µM

Question: And the TGI (SF-295 CNS)?
Answer: > 100 µM

Question: What about the GI50 (ACHN renal) of the same compound?
Answer: 4.39 µM

Question: What about the TGI (ACHN renal) of the same compound?
Answer: > 100 µM
